From the NIST ThermoML archive (doi:10.1016/j.jct.2019.105880)

Assay: wn = mass fraction of the nth substance listed
Details: 100 kPa, Liquid; for viscosity: Falling or rolling sphere viscometry; for speed of sound: Frequency=3 MHz, Single path-length method; for mass density: Vibrating tube method

CCCO [propan-1-ol] + O
Details	mass density [kg/m3]	speed of sound [m/s]	viscosity [mPa·s]
288.15 K, w1 = 0.1	985.245	1564.4	1.82
288.15 K, w1 = 0.2	971.452	1587.4	2.723
288.15 K, w1 = 0.3	954.251	1533.5	3.208
288.15 K, w1 = 0.4	934.617	1485.7	3.575
293.15 K, w1 = 0.1	983.869	1570.1	1.545
293.15 K, w1 = 0.2	969.02	1581.6	2.232
293.15 K, w1 = 0.3	950.883	1526.5	2.618
293.15 K, w1 = 0.4	931.255	1477.2	2.92
298.15 K, w1 = 0.1	982.336	1574.3	1.333
298.15 K, w1 = 0.2	966.338	1575.5	1.852
298.15 K, w1 = 0.3	948.039	1519.6	2.174
298.15 K, w1 = 0.4	927.818	1468	2.436
303.15 K, w1 = 0.1	980.428	1577.4	1.156
303.15 K, w1 = 0.2	963.667	1569.5	1.567
303.15 K, w1 = 0.3	945.132	1512.6	1.841
303.15 K, w1 = 0.4	924.386	1458.6	2.056

CC(C)O [propan-2-ol] + O
Details	mass density, w1 = 0.1 [kg/m3]	mass density, w1 = 0.2 [kg/m3]	mass density, w1 = 0.3 [kg/m3]	speed of sound, w1 = 0.1 [m/s]	speed of sound, w1 = 0.2 [m/s]	speed of sound, w1 = 0.3 [m/s]	viscosity, w1 = 0.1 [mPa·s]	viscosity, w1 = 0.2 [mPa·s]	viscosity, w1 = 0.3 [mPa·s]
288.15 K	983.401	971.675	954.62	1573.7	1638.6	1586.9	1.936	3.087	4.014
293.15 K	982.158	969.345	951.686	1578.9	1629.4	1574.7	1.633	2.485	3.172
298.15 K	980.642	966.771	948.106	1582.9	1620.2	1562.8	1.395	2.045	2.555
303.15 K	978.882	964.199	945.121	1585.7	1611	1549.6	1.208	1.71	2.105
